In US4088778A, “Method for the treatment of hypertension” (priority 1975, dated 1978):

Columns and labels:
[1] = Clinical Experiment II: improvement of subjective symptoms; assay type: in vivo, human patients
Method: (§1) 75 patients of hypertension or arteriosclerosis having subjective symptoms were tested. Some of them suffered from complications such as ischemia heart disease and cerebral thrombosis. They are detailed in Table 11.
(§2) Two capsules were administered at one time, and the administration was conducted 3 times per day after eating. The duration of the continuous administration was 4 weeks. Combined use of drugs having the same functions as those of TN (vitamin E drugs, nicotinic acid, its derivatives and peripheral vasolidators) and minor tranquilizers was prohibited.
Changes of various subjective symptoms of patients of hypertension were collectively examined, and at the time of termination of the administration, the degrees of improvements were judged and evaluated in both the TN administered group and the P group, to obtain results shown in Table 22.

[2] = Teratogenetic property test; assay type: in vivo, pregnant mice or pregnant rats; settings: orally, 100 to 1200 mg/Kg
Excerpt: (C) Teratogenetic Property Test:

[3] = Hypotensive effect on rats of spontaneous hypertension, old SHR; assay type: in vivo, rats (9-month-old male SHR); settings: 100 mg/kg TN orally once a day
Method: (B) Hypotensive Effect on Rats of Spontaneous Hypertension:
Experiments were conducted by using two classes of rats of spontaneous hypertension (hereinafter referred to as "SHR"; provided by Nippon Rat K.K.) differing in the age. In the first experiment, 9-month-old chronic […] SHR (hereinafter referred to as "old SHR"), and in the second experiment, 7-week-old SHR in which hypertension was advancing (hereinafter referred to as "young SHR") was used.
(1) Experiment on Old SHR:
40 of 9-month-old male SHR (having a body weight of 360 to 450 g) were divided into 10 groups, each consisting of 4 rats, and each group was placed in a cage. One of the rats in each cage was used as the non-administered control animal, and 20 mg/Kg of TN, 100 mg/Kg of TN and 88 mg/Kg of TA (equimolar to 100 mg/Kg of TN) were administered to the remaining 3 rats, respectively. Each hypotensive agent was orally administered once a day over a period of 4 weeks in the form of a suspension in gum arabic. Gum arabic solution was administered to the Control (non-administered) group. Simultaneously with initiation of the administration, drinking water was exchanged from service water to a 1% aqueous solution of sodium chloride.

Solubility = assay type: physicochemical
[4] = Clinical Experiment II: liver function test; assay type: in vivo, human patients; parameters: GOT, Average Value / GPT, Average Value / LDH, Average Value / ALP, Average Value: unit not given here
Method: as §1, §2

[5] = Subacute and chronic toxicities; assay type: in vivo; settings: rats 100 to 1000 mg/Kg and beagles 100 mg/Kg daily, 3 or 6 months
Method: (B) Subacute and Chronic Toxicities:
TN and TA were separately administered to rats and beagles at daily doses of 100 to 1000 mg/Kg and 100 mg/Kg, respectively, continuously for 3 or 6 months.

[6] = Clinical Experiment II: general improvement; assay type: in vivo, human patients
Method: as §1, §2
With respect to patients of hypertension alone, the general improvement was evaluated collectively based on subjective symptoms and clinical test data to obtain results shown in Table 23.

Acute toxicity on rats = assay type: in vivo; settings: mice and rats, maximum amount that can be administered
Excerpt: Toxicities of TN and TA will now be described.

[7] = Hypotensive effect on experimental hypertension caused by DOCA; assay type: in vivo, male wistar rats
Method: (A) Hypotensive effect on experimental hypertension caused by administration of desoxycorticosterone (hereinafter referred to as "DOCA"):
Right kidneys were removed from 6-week-old male wistar rats, and a 1% aqueous solution of sodium chloride was given as drinking water and 12.5 mg/Kg of DOCA was intramuscularly injected every week. The change of the blood pressure was examined over a period of 6 weeks.
48 rats, each having one kidney removed, were divided into 6 groups, each consisting of 8 rats, and each group was placed in a cage. With respect to each group, a gum arabic solution was administered to 2 rats as non-administered control animals. 20 mg/Kg of TN was administered once a day to each of two rats among the remaining 6 rats, and 100 mg/Kg of TN was administered once a day to each of two rats among the remaining 4 rats. 88 mg/Kg of TA was administered once a day to each of the remaining two rats. TN and TA were administered in the form of a suspension in gum arabic. The blood pressure was measured by a Shimazu type systolic pressure continuous recording apparatus detecting pulse waves of rats taken in a thermostat fixed box maintained at 30° C.

[8] = conclusion of both clinical experiments
[9] = level of significance lower than 5%

With `Cc1c(C)c2c(c(C)c1OC(=O)c1cccnc1)CCC(C)(CCCC(C)CCCC(C)CCCC(C)C)O2` (racemic) [TN, dl-α-tocopheryl nicotinate] the “Improvement of subjective symptoms: Improvement Ratio” value ([1]; P group 52.94, P < 0.05) was 86.36%, the “degree of improvement of subjective symptoms versus P group” value [1, 8] was “higher than in the P group” and the “improving rush of blood, dizzy feeling, stiffness in the shoulders, stiffness in the nape, heaviness in the head and insomnia” value [1, 8] was “especially good effects”. For the same molecule, the “degree of improvement of subjective symptoms versus P group” value [1, 9] was “excellent over that in the P group at a level of significance lower than 5%”, the “Improvement of subjective symptoms: Not Changed” value ([1]; number of patients, total 22) was 3 and the “Improvement of subjective symptoms: Partial Improvement” value ([1]; number of patients, total 22) was 6. The “Improvement of subjective symptoms: Remarkable Improvement” value ([1]; number of patients, total 22) was 7, the “Improvement of subjective symptoms: Slight Improvement” value ([1]; number of patients, total 22) was 6 and the “Improvement of subjective symptoms: Worsened” value ([1]; number of patients, total 22) was 0. For the same molecule, the “influences on mother animals, embryos and newborn babies” value [2] was “no influences were observed”, the teratogenetic property [2] was “no teratogenetic property” and the “difference of the blood pressure between control and administered group” value ([3]; 3rd week) was “about 30 mm Hg”. For the same molecule, the “lowering of blood pressure on the average” value ([3]; after 1 week) was 15 mm Hg, the “solubility in organic solvents” value (Solubility) was “easily soluble in acetone, benzene, chloroform, ether and ethanol” and the solubility in water (Solubility) was “hardly soluble in water”. The “variation of GOT, GPT, LDH and ALP” value ([4]; Table 16) was “the variation was within the normal region”, the “GOT, Average Value” ([4]; after administration, N 29, S.D. ±9.51) was 24.90 and the “ALP, Average Value” ([4]; after administration, N 30, S.D. ±2.21) was 7.21. For the same molecule, the “GPT, Average Value” ([4]; after administration, N 30, S.D. ±13.40) was 18.73, the “LDH, Average Value” ([4]; after administration, N 30, S.D. ±53.94) was 245.03 and the “ALP, Average Value” ([4]; before administration, N 34, S.D. ±2.36) was 7.37. For the same molecule, the “LDH, Average Value” ([4]; before administration, N 36, S.D. ±72.42) was 251.28, the “GOT, Average Value” ([4]; before administration, N 37, S.D. ±14.92) was 28.59 and the “GPT, Average Value” ([4]; before administration, N 37, S.D. ±19.46) was 22.73. For the same molecule, the “tendency of reduction of GOT and GPT” value ([4]; versus P group) was “greater in the TN administered group than in the P group”, the deaths [5] was “no deaths” and the “haematological, haemetobiological and histological surveys” value [5] was “no manifestation of the toxicity was observed”. For the same molecule, the “inhibition of the body weight” value [5] was “inhibition of the body weight was not observed”, the “General improvement: Improvement Ratio” value ([6]; P group 52.94, P < 0.05) was 86.36% and the “general improvement versus P group” value ([6]; conclusion of both clinical experiments, significance lower than 0.5%) was “significantly excellent over that in the P group at a level of significance lower than 0.5%”. For the same molecule, the “general improvement versus P group” value [6, 9] was “excellent over that in the P group at a level of significance lower than 5%”, the “General improvement: Not Changed” value ([6]; number of patients, total 22) was 3 and the “General improvement: Partial Improvement” value ([6]; number of patients, total 22) was 7. For the same molecule, the “General improvement: Remarkable Improvement” value ([6]; number of patients, total 22) was 4, the “General improvement: Slight Improvement” value ([6]; number of patients, total 22) was 8 and the “General improvement: Worsened” value ([6]; number of patients, total 22) was 0. For the same molecule, the “animals killed in acute toxicity test” value (Acute toxicity on rats) was “no test animal was killed”, the “number of rats with blood pressure elevated to 170 mm Hg or higher” value ([7]; 20 mg/kg of TN once a day, among 10 rats (control 9 among 11)) was 5 rats and the “effect on increase of the blood pressure” value ([7]; 100 mg/kg of TN) was “especially conspicuous”. For the same molecule, the “number of rats with blood pressure elevated to 170 mm Hg or higher” value ([7]; 100 mg/kg of TN once a day, among 12 rats (control 9 among 11)) was 3 rats and the “hypotensive effect, overall conclusion from pharmacological tests on animals” value ([7]; DOCA rats, old SHR, young SHR) was “have a hypotensive effect”.
